{"source": "patent US20250325662A1", "about": "“METHODS OF TREATING AND PREDICTING NON-RESPONSE TO ANTI-TNF TREATMENT IN SUBJECTS WITH GASTROINTESTINAL TRACT DISEASES” (BT Bidco, Inc., priority 2020, published 2025)", "system": "IL-6, GM-CSF, IL-15, IL-2, IL-12, IL-13, TNF-α, and INF-γ", "note": "Structures can show the parent of a compound that is named as a salt."}
{"smiles": "C[C@@H]1CCN(C(=O)CC#N)C[C@@H]1N(C)c1ncnc2[nH]ccc12", "note": "[tofacitinib citrate]", "values": [{"measurement": "IL-6 expression in plasma", "setting": "PO or IC administration, 1 h and 3 h post-treatment", "result": "inhibition of IL-6 expression"}, {"measurement": "inhibition of IL-6 expression in colon tissue", "setting": "all IC treated groups and high dose PO group (45 mg/kg)", "result": "sustained through 24 h post-dose"}, {"measurement": "IL-6 inhibition in colon tissue", "setting": "low dose PO group (15 mg/kg), by 12 h post-dose", "result": "Recovery from IL-6 inhibition"}]}
